Measured values reported in the NIST ThermoML archive (doi:10.1016/j.jct.2010.08.019).

Experiment: xn = mol fraction of the nth substance listed
Conditions: for surface tension liquid-gas: Wilhelmy-plate method; for viscosity / mass density: 101 kPa, Liquid; for viscosity: Falling or rolling sphere viscometry; for mass density: Vibrating tube method

C1CCOCC1 [tetrahydropyran] + CC(C)O
Conditions | mass density [kg/m3] | surface tension liquid-gas [mN/m] | viscosity [mPa·s]
293.15 K, x2 = 0 | 884.27 | 27.5 | 0.86
293.15 K, x2 = 0.0501 | 879.89 | 27.2 | 0.852
293.15 K, x2 = 0.0999 | 875.5 | 26.9 | 0.845
293.15 K, x2 = 0.1499 | 871.09 | 26.6 | 0.849
293.15 K, x2 = 0.2003 | 866.62 | 26.3 | 0.85
293.15 K, x2 = 0.2506 | 862.13 | 26 | 0.855
293.15 K, x2 = 0.2999 | 857.7 | 25.7 | 0.864
293.15 K, x2 = 0.35 | 853.13 | 25.4 | 0.877
293.15 K, x2 = 0.3999 | 848.52 | 25 | 0.899
293.15 K, x2 = 0.4499 | 843.87 | 24.7 | 0.922
293.15 K, x2 = 0.5001 | 839.07 | 24.4 | 0.947
293.15 K, x2 = 0.5502 | 834.22 | 24 | 0.983
293.15 K, x2 = 0.6001 | 829.28 | 23.7 | 1.032
293.15 K, x2 = 0.6499 | 824.23 | 23.4 | 1.095
293.15 K, x2 = 0.7001 | 819.03 | 23.1 | 1.164
293.15 K, x2 = 0.7499 | 813.78 | 22.7 | 1.256
293.15 K, x2 = 0.8 | 808.34 | 22.4 | 1.378
293.15 K, x2 = 0.8501 | 802.8 | 22.1 | 1.535
293.15 K, x2 = 0.9001 | 797.15 | 21.9 | 1.739
293.15 K, x2 = 0.9499 | 791.36 | 21.6 | 2.013
303.15 K, x2 = 0 | 874.07 | 26.2 | 0.749
303.15 K, x2 = 0.0502 | 869.6 | 26 | 0.737
303.15 K, x2 = 0.1001 | 865.24 | 25.7 | 0.729
303.15 K, x2 = 0.1501 | 860.87 | 25.4 | 0.728
303.15 K, x2 = 0.1998 | 856.52 | 25.1 | 0.725
303.15 K, x2 = 0.2499 | 852.09 | 24.8 | 0.729
303.15 K, x2 = 0.3 | 847.66 | 24.5 | 0.737
303.15 K, x2 = 0.3499 | 843.17 | 24.2 | 0.75
303.15 K, x2 = 0.4001 | 838.59 | 23.9 | 0.76
303.15 K, x2 = 0.4501 | 833.98 | 23.6 | 0.779
303.15 K, x2 = 0.5001 | 829.29 | 23.3 | 0.8
303.15 K, x2 = 0.55 | 824.54 | 22.9 | 0.825
303.15 K, x2 = 0.6 | 819.65 | 22.6 | 0.861
303.15 K, x2 = 0.65 | 814.69 | 22.3 | 0.905
303.15 K, x2 = 0.6999 | 809.62 | 22 | 0.958
303.15 K, x2 = 0.7499 | 804.47 | 21.7 | 1.021
303.15 K, x2 = 0.8001 | 799.17 | 21.4 | 1.108
303.15 K, x2 = 0.85 | 793.77 | 21.2 | 1.214
303.15 K, x2 = 0.8998 | 788.25 | 20.9 | 1.356
303.15 K, x2 = 0.9499 | 782.59 | 20.6 | 1.533
313.15 K, x2 = 0 | 863.76 | 25.1 | 0.658
313.15 K, x2 = 0.05 | 859.32 | 24.9 | 0.645
313.15 K, x2 = 0.1 | 854.97 | 24.6 | 0.639
313.15 K, x2 = 0.1501 | 850.64 | 24.3 | 0.634
313.15 K, x2 = 0.2 | 846.27 | 24.1 | 0.633
313.15 K, x2 = 0.2499 | 841.92 | 23.8 | 0.635
313.15 K, x2 = 0.2997 | 837.55 | 23.5 | 0.638
313.15 K, x2 = 0.3499 | 833.09 | 23.2 | 0.646
313.15 K, x2 = 0.4 | 828.58 | 22.9 | 0.656
313.15 K, x2 = 0.4504 | 823.98 | 22.6 | 0.667
313.15 K, x2 = 0.5001 | 819.37 | 22.3 | 0.682
313.15 K, x2 = 0.55 | 814.68 | 22 | 0.704
313.15 K, x2 = 0.5999 | 809.9 | 21.7 | 0.725
313.15 K, x2 = 0.65 | 805.04 | 21.4 | 0.758
313.15 K, x2 = 0.7001 | 800.07 | 21.1 | 0.796
313.15 K, x2 = 0.7502 | 794.95 | 20.8 | 0.844
313.15 K, x2 = 0.7999 | 789.8 | 20.6 | 0.901
313.15 K, x2 = 0.85 | 784.49 | 20.3 | 0.976
313.15 K, x2 = 0.8998 | 779.1 | 20.1 | 1.069
313.15 K, x2 = 0.9498 | 773.58 | 19.8 | 1.187
323.15 K, x2 = 0 | 666.8 | 23.8 | 0.565
323.15 K, x2 = 0.05 | – | 23.5 | 0.562
323.15 K, x2 = 0.0501 | 667.65 | – | –
323.15 K, x2 = 0.1 | 669.08 | 23.3 | 0.558
323.15 K, x2 = 0.15 | 670.98 | – | –
323.15 K, x2 = 0.1501 | – | 23.1 | 0.553
323.15 K, x2 = 0.1998 | 673.08 | – | –
323.15 K, x2 = 0.2 | – | 22.8 | 0.55
323.15 K, x2 = 0.2499 | – | 22.6 | 0.55
323.15 K, x2 = 0.25 | 675.42 | – | –
323.15 K, x2 = 0.2997 | – | 22.3 | 0.553
323.15 K, x2 = 0.3 | 677.99 | – | –
323.15 K, x2 = 0.3499 | – | 22 | 0.557
323.15 K, x2 = 0.35 | 680.86 | – | –
323.15 K, x2 = 0.4 | 683.93 | 21.8 | 0.563
323.15 K, x2 = 0.4499 | 687.34 | – | –
323.15 K, x2 = 0.4504 | – | 21.5 | 0.571
323.15 K, x2 = 0.5 | 691.07 | – | –
323.15 K, x2 = 0.5001 | – | 21.2 | 0.582
323.15 K, x2 = 0.5501 | 695.17 | 20.9 | 0.596
323.15 K, x2 = 0.6 | 699.74 | 20.7 | 0.615
323.15 K, x2 = 0.65 | 704.78 | 20.4 | 0.635
323.15 K, x2 = 0.6999 | – | 20.1 | 0.661
323.15 K, x2 = 0.7 | 710.22 | – | –
323.15 K, x2 = 0.7499 | 716.22 | – | –
323.15 K, x2 = 0.7502 | – | 19.9 | 0.697
323.15 K, x2 = 0.7999 | 722.88 | – | –
323.15 K, x2 = 0.8002 | – | 19.6 | 0.739
323.15 K, x2 = 0.85 | 730.48 | – | –
323.15 K, x2 = 0.8501 | – | 19.4 | 0.79
323.15 K, x2 = 0.8998 | – | 19.2 | 0.85
323.15 K, x2 = 0.9 | 738.82 | – | –
323.15 K, x2 = 0.95 | 748.16 | – | –
323.15 K, x2 = 0.9501 | – | 19 | 0.927
